The target in one assay is T1, cytochrome P450 2C19 (Homo sapiens, UniProt P33261).
T1 construct: isoenzyme activity in human liver microsomes using conventional sample substrates and HPLC-MS/MS detection; from tissue; host or cells: human liver microsomes
Nature of the assay: Cytochrome inhibition in human liver microsomes, 2C19. To be noted: substrate Mephenytoin, read-out: IC50, 2C19 (PSMA-Abi). It is filed as in vitro ADME. The text has this: (§1) To assess the effect of drugs on liver cytochrome activity in drug development, test systems with recombinant enzymes and fluorescent substrates as well as microsomes with metabolic substrates and HPLC-MS/MS analysis were used. The present study aimed to investigate the effect of targeted delivery drugs specific to malignant prostate cells on cytochrome P450 (CYP450) isoenzyme activity in human liver microsomes using conventional sample substrates and HPLC-MS/MS detection. Detailed methodological parameters are described in the Supplementary Material.
(In general: Liver microsomes are vesicles of endoplasmic reticulum, rich in cytochrome P450 enzymes.)

In a further assay the test system is PC-3. Nature of the assay: Single cell ROS measurement with Pt-nanoelectrodes, PC-3. To be noted: PC-3, 1 h incubation, IC50 concentration. It is filed as cell-based, human. Here is the method: Commercially available, disk-shaped carbon nanoelectrodes isolated in quartz (ICAPPIC Limited, London, UK) with diameters of 60–100 nm were used to prepare Pt nanoelectrodes for the amperometric detection of intracellular ROS level. Preparation of Pt-nanoelectrodes has been described in detail previously.
Briefly, a disk-shaped carbon nanoelectrode was etched in a 0.1 M NaOH, 10 mM KCl solution for 20–40 cycles of 10 seconds (from 0 to +2200 mV) to create nanocavities. Electrochemical deposition of platinum in nanocavities was achieved by cycling from 0 to −800 mV with a scan rate of 200 mV s^−1 for 8 to 10 cycles in 2 mM H2PtCl6 solution in 0.1 M hydrochloric acid. […]
The setup for amperometric measurements included a PC that was connected to a system consisting of an ADC–DAC converter Axon Digidata 1550B (Axon Instruments, Burlingame, CA, USA) and patch-clamp amplifier MultiClamp 700B (Axon Instruments, USA). […] The potential difference between the Pt-nanoelectrode and the reference electrode was recorded with the pClamp 11 software suite (Molecular Devices, Silicon Valley, CA, USA) and processed with Origin 2018 software.
PC-3 (2.0 × 10^5)/22Rv1 (3.5 × 10^5) cells were seeded in 35 mm Petri dishes, incubated under the conditions described above, and then treated for 24 h. […] Untreated cells were used as a control, which was evaluated at the beginning and at the end of the experiment. […]

The next assay has as its target T2, cytochrome P450 1A2 (Homo sapiens, UniProt P05177).
T2 construct: isoenzyme activity in human liver microsomes using conventional sample substrates and HPLC-MS/MS detection; from tissue; host or cells: human liver microsomes
T2 sequence (P05177 1-516): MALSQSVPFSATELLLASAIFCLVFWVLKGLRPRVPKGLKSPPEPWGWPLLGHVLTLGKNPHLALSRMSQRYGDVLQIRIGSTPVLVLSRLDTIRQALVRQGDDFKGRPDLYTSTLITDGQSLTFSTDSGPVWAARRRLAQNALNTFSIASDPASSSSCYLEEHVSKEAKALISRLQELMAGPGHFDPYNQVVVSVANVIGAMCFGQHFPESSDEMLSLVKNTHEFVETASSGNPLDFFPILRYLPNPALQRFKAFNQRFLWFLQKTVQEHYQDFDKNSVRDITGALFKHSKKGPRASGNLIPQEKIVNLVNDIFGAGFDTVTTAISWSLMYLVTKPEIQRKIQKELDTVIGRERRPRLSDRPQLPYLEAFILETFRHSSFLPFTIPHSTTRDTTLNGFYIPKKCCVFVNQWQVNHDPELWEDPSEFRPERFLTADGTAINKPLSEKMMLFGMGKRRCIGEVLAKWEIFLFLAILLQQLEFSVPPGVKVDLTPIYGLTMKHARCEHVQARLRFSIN
Description: Cytochrome inhibition in human liver microsomes, 1A2. It is filed as in vitro ADME. Conditions: substrate Phenacetin, read-out: IC50, 1A2 (PSMA-Abi).
Description: as §1

A further assay concerns 22Rv1 cells. Nature of the assay: Cell cycle analysis. It is filed as cell-based, human. Here is the method:
Cell cycle was analyzed in 22Rv1 cells fixed in 70% ethanol with Muse® cell cycle kit. The fixation lasted overnight at −20 °C. Then, cells were collected by centrifugation at 4000 rpm for 10 min and washed with PBS. The cells were resuspended with Muse® Cell Cycle reagent and incubated for 30 min at room temperature in the dark; then, they were counted.

For another assay, the target named is T3, cytochrome P450 2C9 (Homo sapiens, UniProt P11712).
T3 construct: isoenzyme activity in human liver microsomes using conventional sample substrates and HPLC-MS/MS detection; from tissue; host or cells: human liver microsomes
Description: Cytochrome inhibition in human liver microsomes, 2C9. In kind it is in vitro ADME. To be noted: substrate Tolbutamide, read-out: IC50, 2C9 (PSMA-Abi).
Description: as §1

Another assay concerns the target T4, cytochrome P450 2D6 (Homo sapiens, UniProt P10635).
T4 construct: isoenzyme activity in human liver microsomes using conventional sample substrates and HPLC-MS/MS detection; from tissue; host or cells: human liver microsomes
Nature of the assay: Cytochrome inhibition in human liver microsomes, 2D6. To be noted: substrate Dextromethorphan, read-out: IC50, 2D6 (PSMA-Abi). It is filed as in vitro ADME.
Description: as §1

A value given as a limit tells only on which side of the number the result lay.

T3 sequence (P11712 whole entry): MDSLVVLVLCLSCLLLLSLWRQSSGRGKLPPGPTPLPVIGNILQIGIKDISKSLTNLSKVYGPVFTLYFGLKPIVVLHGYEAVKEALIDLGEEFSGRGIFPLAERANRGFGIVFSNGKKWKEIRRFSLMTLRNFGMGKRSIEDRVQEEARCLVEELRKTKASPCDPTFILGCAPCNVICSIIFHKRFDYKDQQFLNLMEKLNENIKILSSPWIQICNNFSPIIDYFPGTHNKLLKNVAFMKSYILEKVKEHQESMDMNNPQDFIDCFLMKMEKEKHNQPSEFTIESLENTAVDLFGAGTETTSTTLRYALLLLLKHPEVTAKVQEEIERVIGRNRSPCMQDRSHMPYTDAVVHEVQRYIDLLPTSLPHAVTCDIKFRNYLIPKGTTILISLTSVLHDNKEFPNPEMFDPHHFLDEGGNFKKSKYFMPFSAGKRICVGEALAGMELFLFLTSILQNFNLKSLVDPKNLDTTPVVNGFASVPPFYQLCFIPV
T1 sequence (P33261 whole entry): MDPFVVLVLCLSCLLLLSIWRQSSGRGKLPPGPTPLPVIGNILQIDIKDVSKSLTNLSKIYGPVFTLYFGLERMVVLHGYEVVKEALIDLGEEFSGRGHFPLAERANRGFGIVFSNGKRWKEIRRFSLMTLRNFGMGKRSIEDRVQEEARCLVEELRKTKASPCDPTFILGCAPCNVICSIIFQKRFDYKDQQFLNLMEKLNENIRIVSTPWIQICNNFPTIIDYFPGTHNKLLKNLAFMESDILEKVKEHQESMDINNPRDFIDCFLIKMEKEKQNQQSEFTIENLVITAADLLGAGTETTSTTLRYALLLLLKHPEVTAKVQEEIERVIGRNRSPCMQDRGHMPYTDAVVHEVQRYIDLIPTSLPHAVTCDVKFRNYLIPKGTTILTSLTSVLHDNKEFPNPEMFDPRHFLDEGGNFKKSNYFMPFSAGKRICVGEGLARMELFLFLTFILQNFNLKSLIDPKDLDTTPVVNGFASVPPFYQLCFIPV
T4 sequence (P10635 whole entry): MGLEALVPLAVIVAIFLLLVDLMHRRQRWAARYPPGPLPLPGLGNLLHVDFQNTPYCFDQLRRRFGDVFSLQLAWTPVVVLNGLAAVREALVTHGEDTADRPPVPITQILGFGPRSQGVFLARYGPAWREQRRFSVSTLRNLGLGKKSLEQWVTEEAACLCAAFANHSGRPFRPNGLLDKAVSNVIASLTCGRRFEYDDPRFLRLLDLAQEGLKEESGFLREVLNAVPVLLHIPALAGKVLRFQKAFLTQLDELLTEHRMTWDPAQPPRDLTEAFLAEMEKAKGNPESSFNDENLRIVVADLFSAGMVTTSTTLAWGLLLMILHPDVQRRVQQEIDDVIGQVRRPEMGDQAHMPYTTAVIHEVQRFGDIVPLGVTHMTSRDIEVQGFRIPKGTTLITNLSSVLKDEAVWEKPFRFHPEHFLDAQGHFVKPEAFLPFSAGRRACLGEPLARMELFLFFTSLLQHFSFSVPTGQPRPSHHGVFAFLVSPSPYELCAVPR

On to `C[C@]12CC[C@H](OC(=O)CCCc3cn(CCCNC(=O)[C@H](Cc4ccc(O)cc4)NC(=O)[C@H](Cc4ccccc4)NC(=O)CCC(=O)NCCCCCC(=O)N(CCCC[C@H](NC(=O)N[C@@H](CCC(=O)O)C(=O)O)C(=O)O)Cc4cccc(Cl)c4)nn3)CC1=CC[C@@H]1[C@@H]2CC[C@]2(C)C(c3cccnc3)=CC[C@@H]12` [PSMA-Abi], for which the IC50 (as a rule, the concentration needed to halve the response being measured) on cytochrome P450 2C19 was greater than 25 µM; at cytochrome P450 1A2 it was 4.5 ± 1.1 µM; at cytochrome P450 2C9, greater than 25 µM; at cytochrome P450 2D6, 17 ± 1 µM. Moreover, the “ROS (hydrogen peroxide) level in single cells” value in the assay on PC-3 is reported as “remained at the level of the AbiAc sample”. In addition, the “effect on cell cycle” value in the assay on 22Rv1 cells (22Rv1, against a control group) is “not statistically significant against a control group”. For the same molecule, in the assay with 22Rv1 cells (22Rv1, with increasing concentration), the “level of G0/G1 cells” value is given as “practically unchanged”.

The values are drawn from article PMC9783881, “Synthesis and Preclinical Evaluation of Small-Molecule Prostate-Specific Membrane Antigen-Targeted Abiraterone Conjugate” (Molecules, 2022).
